Laboratory results reported in US20230339937A1, “CONDENSED RING COMPOUNDS THAT INHIBIT H-PGDS” (SATO PHARMACEUTICAL CO., LTD., priority 2020, published 2023).

Target: T1, Recombinant human H-PGDS (Homo sapiens, UniProt O60760)
T1 construct: made in house; host or cells: E. coli
Assay: H-PGDS inhibitory activity (prostaglandin D2 production from prostaglandin H2, measured by LC-MS/MS)
Assay type: biochemical
Details: recombinant human H-PGDS 1.0 nM expressed in E. coli; prostaglandin H2 25 μM; preincubated 15 minutes on ice, reacted on ice for 1 minute; concentration that inhibits prostaglandin D2 production by 50%
Experimental: The H-PGDS inhibitory activity of each Example compound was measured according to the method reported by LIN, Jiang. et al. (NO 2007/041634).
Recombinant human H-PGDS (final concentration: 1.0 nM) expressed in E. coli was mixed in an assay buffer containing 20 mM Tris-HCl (pH 8.0), 2 mM magnesium chloride, 2 mM reduced glutathione, and 0.5 mg/mL γ-globulin, and 150 μL of the mixture was dispensed into a 8-strip PCR tube (BM Equipment Co., Ltd.). Test compounds (Example compounds) (16.5 μL) at various concentrations dissolved in DMSO were added and the mixture was preincubated for 15 minutes on ice.
Prostaglandin H2 (final concentration: 25 μM) (Cayman Chemical) was dispensed into another 8-strip PCR tube, and the solvent was dried and solidified using a vacuum concentrator (Thermo Fisher Scientific). To the dried and solidified prostaglandin H2 was added 50 μL of the assay buffer containing H-PGDS and each test compound after the preincubation, and the mixture was reacted on ice for 1 minute. 45 μL of this mixture was added to 45 μL of a stop solution (50 mM aqueous citric acid solution containing iron chloride at a final concentration of 4 mg/mL) to stop the reaction. Then, the reaction solution was deproteinized, added to a 96 square deep well plate (SHONANMARUHACHI STEC Co., Ltd.), and the prostaglandin D2 concentration in the reaction solution was measured by LC-MS/MS. ACQUITY (registered trademark) TQD (Waters) was used as a measuring instrument.
Prostaglandin Da production activity (f) in the group with each test compound when a value obtained by subtracting the amount of production of prostaglandin D2 in the group without enzyme, which is non-specific production of prostaglandin D2, from the amount of production of prostaglandin Da in the group without test compound (DMSO-addition group) in each 8-strip PCR tube is 100% was calculated.

T1 sequence (O60760 whole entry): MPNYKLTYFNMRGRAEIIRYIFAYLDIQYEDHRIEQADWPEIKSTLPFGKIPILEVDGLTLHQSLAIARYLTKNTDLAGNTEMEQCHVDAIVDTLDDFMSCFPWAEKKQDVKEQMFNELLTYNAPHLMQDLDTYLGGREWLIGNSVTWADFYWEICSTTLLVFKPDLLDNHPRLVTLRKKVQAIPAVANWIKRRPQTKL

SMILES	IC50 [nM]
CO[C@@H]1CN(c2ncc(CO)cn2)C[C@H]1NC(=O)c1ccc(-c2nccc3occc23)cc1 [Example 205, 4-(furo[3,2-c]pyridin-4-yl)-N-((3R,4R)-1-[5-(hydroxymethyl)pyrimidin-2-yl]-4-methoxypyrrolidin-3-yl)benzamide]	5.6
O=C(NC1CC1)c1ccc(-c2nccc3[nH]ccc23)cc1 [Example 14, N-cyclopropyl-4-(1H-pyrrolo [3,2-c]pyridin-4-yl)benzamide]	1.4
CC(C)(O)[C@H]1CC[C@H](NC(=O)c2ccc(-c3nc(C#N)cc4occc34)cc2)CC1 [Example 317, 4-(6-cyanofuro[3,2-c]pyridin-4-yl)-N-[trans-4-(2-hydroxypropan-2-yl)cyclohexyl]benzamide]	51
CC(C)(O)[C@H]1CC[C@H](NC(=O)c2ccc(-c3ncc(C#N)c4occc34)cc2)CC1 [Example 139, 4-(7-cyanofuro[3,2-c]pyridin-4-yl)-N-[trans-4-(2-hydroxypropan-2-yl)cyclohexyl]benzamide]	251
N#Cc1cc(N2CCC(NC(=O)c3ccc(-c4nccc5occc45)cc3)CC2)ccn1 [Example 166, N-[1-(2-cyanopyridin-4-yl)piperidin-4-yl]-4-(furo[3,2-c]pyridin-4-yl)benzamide]	1
O=C(NCC1CC1)c1ccc(-c2nccc3[nH]ccc23)cc1 [Example 18, N-(cyclopropyl-methyl)-4-(1H-pyrrolo[3,2-c]pyridin-4-yl)benzamide]	1
O=C(NC1CCN(c2ncccn2)CC1)c1ccc(-c2nccc3[nH]ccc23)cc1 [Example 336, N-[1-(pyrimidin-2-yl)piperidin-4-yl]-4-(1H-pyrrolo[3,2-c]pyridin-4-yl)benzamide]	0.94
Cc1cnc(-c2ccc(C(=O)N[C@H]3CC[C@H](C(C)(C)O)CC3)cc2)c2ccoc12 [Example 129, N-[trans-4-(2-hydroxypropan-2-yl)cyclohexyl]-4-(7-methylfuro[3,2-c]pyridin-4-yl)benzamide]	2.4
CC(C)NC(=O)c1ccc(-c2nccc3[nH]ccc23)cc1 [Example 15, N-isopropyl-4-(1H-pyrrolo[3,2-c]pyridin-4-yl)benzamide]	0.99
CCCn1ccc(CNC(=O)c2ccc(-c3nccc4[nH]ccc34)cc2)n1 [Example 44, N-[(1-propyl-1H-pyrazol-3-yl)methyl]-4-(1H-pyrrolo[3,2-c]pyridin-4-yl)benzamide]	0.98
Cc1nn(C)c(C)c1CNC(=O)c1ccc(-c2nccc3[nH]ccc23)cc1 [Example 40, 4-(1H-pyrrolo[3,2-c]pyridin-4-yl)-N-[(1,3,5-trimethyl-1H-pyrazol-4-yl)methyl] benzamide]	0.89
O=C(NCc1ccccn1)c1ccc(-c2nccc3[nH]ccc23)cc1 [Example 9]	1.5
O=C(N[C@@H]1CN(c2ncc(CO)cn2)C[C@H]1F)c1ccc(-c2nccc3occc23)cc1 [Example 203, N-{(3R,4R)-4-fluoro-1-[5-(hydroxymethyl)pyrimidin-2-yl]pyrrolidin-3-yl}-4-(furo[3,2-c]pyridin-4-yl)benzamide]	1.9
[2H]C([2H])(O)c1cc2occc2c(-c2ccc(C(=O)N[C@H]3CC[C@H](C(C)(C)O)CC3)cc2)n1 [Example 320, 4-[6-(hydroxymethyl-d2)furo[3,2-c]pyridin-4-yl]-N-[trans-4-(2-hydroxypropan-2-yl)cyclohexyl]benzamide]	0.9
O=C(NC1CCN(c2ccnc(F)c2)CC1)c1ccc(-c2nccc3occc23)cc1 [Example 159, N-[1-(2-fluoropyridin-4-yl)piperidin-4-yl]-4-(furo[3,2-c]pyridin-4-yl)benzamide]	1.3
O=C(N[C@H]1CCN(c2ccnc(F)c2)C1)c1ccc(-c2nccc3occc23)cc1 [Example 196, (S)-N-[1-(2-fluoropyridin-4-yl)pyrrolidin-3-yl]-4-(furo[3,2-c]pyridin-4-yl)benzamide]	1.5

More lines, now with the values ahead:

IC50 [nM]	SMILES
3.8	CC(O)[C@@H]1CC[C@@H](NC(=O)c2ccc(-c3nccc4occc34)cc2)CO1 (stereo partly drawn) [Example 212, 4-(furo[3,2-c]pyridin-4-yl)-N-[(3R,6S)-6-(1-hydroxyethyl)tetrahydro-2 H-pyran-3-yl]benzamide]
2.6	O=C(N[C@H]1CC[C@H](C(F)F)CC1)c1ccc(-c2nccc3occc23)cc1 [Example 310, N-[trans-4-(difluoromethyl)cyclohexyl]-4-(furo[3,2-c]pyridin-4-yl)benzamide]
1.5	O=C(NC12CCC(O)(CC1)C2)c1ccc(-c2nccc3occc23)cc1 [Example 349, 4-(furo[3,2-c]pyridin-4-yl)-N-(4-hydroxybicyclo[2.2.1]heptan-1 yl)benzamide]
0.78	O=C(NC1CCN(c2ncccn2)CC1)c1ccc(-c2nccc3occc23)cc1 [Example 143, 4-(furo[3,2-c]pyridin-4-yl)-N-[1-(pyrimidin-2-yl)piperidin-4-yl]benzamide]
5	O=C(Nc1ccncc1)c1ccc(-c2nccc3occc23)cc1 [Example 108, 4-(furo[3,2-c]pyridin-4-yl)-N-(pyridin-4-yl)benzamide]
2.5	COCCO[C@H]1CC[C@H](NC(=O)c2ccc(-c3nccc4occc34)cc2)CC1 [Example 311, 4-(furo[3,2-c]pyridin-4-yl)-N-[trans-4-(2-methoxyethoxy)cyclohexyl]benzamide]
4.2	O=C(N[C@H]1CC[C@H](OC(F)F)CC1)c1ccc(-c2nccc3occc23)cc1 [Example 263, N-[trans-4-(difluoromethoxy)cyclohexyl]-4-(furo[3,2-c]pyridin-4-yl)benzamide]
2.5	O=C(N[C@@H]1CC[C@@H](CO)OC1)c1ccc(-c2nccc3occc23)cc1 [Example 211, 4-(furo[3,2-c]pyridin-4-yl)-N-[(3R,6S)-6-(hydroxymethyl)tetrahydro-2 H-pyran-3-yl]benzamide]
35	CC(C)(O)[C@H]1CC[C@@H](NC(=O)c2ccc(-c3nccc4occc34)cc2)CC1 [Example 354, 4-(furo[3,2-c]pyridin-4-yl)-N-[cis-4-(2-hydroxypropan-2-yl)cyclohexyl]benzamide]
1.3	CC(O)[C@H]1CC[C@H](NC(=O)c2ccc(-c3nccc4occc34)cc2)CC1 (stereo partly drawn) [Example 121, 4-(furo[3,2-c]pyridin-4-yl)-N-[trans-4-(1-hydroxyethyl)cyclohexyl]benzamide]
1.3	CC(C)(O)C1CC2(CC(NC(=O)c3ccc(-c4nccc5occc45)cc3)C2)C1 (stereo not drawn) [Example 122, 4-(furo[3,2-c]pyridin-4-yl)-N-[6-(2-hydroxypropan-2-yl)spiro[3.3]heptan-2-yl]benzamide]
12	O=C(NCc1ccc(Cl)cc1)c1ccc(-c2nccc3occc23)cc1 [Example 70, N-(4-chlorobenzyl)-4-(furo[3,2-c]pyridin-4-yl)benzamide]
9.7	O=C(N[C@H]1CCN(CC(F)(F)F)C1)c1ccc(-c2nccc3occc23)cc1 [Example 199, (S)-4-(furo[3,2-c]pyridin-4-yl)-N-[1-(2,2,2-trifluoroethyl)pyrrolidin-3-yl]benzamide]
1.5	O=C(N[C@H]1CCN(c2ccncn2)C1)c1ccc(-c2nccc3occc23)cc1 [Example 229, (S)-4-(furo[3,2-c]pyridin-4-yl)-N-[1-(pyrimidin-4-yl)pyrrolidin-3-yl]benzamide]
